According to patent publication US20060069132A1, “Azolecarboxamide herbicides” (priority 2004, published 2006):

Tests used:
eastern black nightshade = assay: Test C pre-/postemergence herbicide test; assay type: in vivo, Solanum ptycanthum; conditions: for Plant response rating, Nightshade / Plant response rating (0 = no effect, 100 = complete control), Nightshade: preemergence; for Nightshade plant response rating: Preemergence, scale 0 to 100, 0 no effect, 100 complete control
Procedure, shortened: (§1)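 Seeds were planted and sprayed preemergence with test chemicals in a non-phytotoxic solvent mixture containing surfactant; postemergence treatments went onto plants 2 to 18 cm tall (1- to 4-leaf stage). After 12 to 14 days in a greenhouse, injury was rated visually against untreated controls on a 0–100 scale.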

woolly cupgrass = assay: Test C pre-/postemergence herbicide test; assay type: in vivo, Eriochloa villosa
Procedure, shortened: as §1

large crabgrass = assay: Test C pre-/postemergence herbicide test; assay type: in vivo, Digitaria sanguinalis
Procedure, shortened: as §1

rice = assay: Test B pre-/postemergence herbicide test; assay type: in vivo, Oryza sativa; conditions: for Rice plant response rating (0 to 100 scale) / Plant response rating, Rice: preemergence
Procedure, shortened: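 Species tested were Echinochloa crus-galli, Ipomoea coccinea, Xanthium strumarium and Oryza sativa, treated both before emergence and at the 1- to 4-leaf stage; rice and barnyardgrass were also tested under flooding at 2 leaves. Greenhouse incubation lasted 13–15 days before visual 0–100 scoring.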

[1] = 125 g ai/ha, scale 0 (no effect) to 100 (complete control), visual, 12 to 14 days
[2] = 500 g ai/ha, scale 0 to 100 (0 no effect, 100 complete control), visual, 12 to 14 days
[3] = 62 g ai/ha, preemergence, scale 0 to 100
[4] = 125 g ai/ha, scale 0 (no effect) to 100 (complete control), visual, 12 to 14 days, preemergence
[5] = 250 g ai/ha, scale 0-100, preemergence
[6] = 500 g ai/ha, scale 0 to 100 (0 no effect, 100 complete control), visual, 12 to 14 days, preemergence
[7] = 125 g ai/ha, 0 = no effect, 100 = complete control
[8] = 500 g ai/ha, visual rating, 0 = no effect, 100 = complete control
[9] = 250 g ai/ha, scale 0 to 100 (0 no effect, 100 complete control), visual, 12 to 14 days
[10] = 250 g ai/ha, scale 0 to 100 (0 no effect, 100 complete control), visual, 12 to 14 days, preemergence
[11] = Preemergence, 500 g ai/ha, scale 0 to 100, 0 no effect, 100 complete control
[12] = 125 g ai/ha, 0 to 100 scale, 0 is no effect, 100 is complete control
[13] = 31 g ai/ha, preemergence, scale 0 to 100
[14] = 500 g ai/ha, visual rating 0-100, 0 no effect, 100 complete control
[15] = Postemergence, 500 g ai/ha, scale 0 to 100
[16] = Postemergence, 250 g ai/ha, scale 0 to 100, 0 no effect, 100 complete control
[17] = postemergence, 125 g ai/ha, scale 0 to 100
[18] = postemergence, 62 g ai/ha, scale 0 to 100

Row | Structure (SMILES) | Plant response rating, Nightshade (eastern black nightshade; 62 g ai/ha, scale 0 to 100) | Plant response rating, Nightshade (eastern black nightshade; [1]) | Plant response rating, Nightshade (eastern black nightshade; 250 g ai/ha, scale 0-100) | Plant response rating, Cupgrass, Woolly (woolly cupgrass; [3]) | Plant response rating, Cupgrass, Woolly (woolly cupgrass; [4]) | Plant response rating, Cupgrass, Woolly (woolly cupgrass; [5]) | Plant response rating, Crabgrass, Large (large crabgrass; [3]) | Plant response rating, Crabgrass, Large (large crabgrass; [4]) | Plant response rating, Crabgrass, Large (large crabgrass; [5]) | Rice plant response rating (0 to 100 scale) (rice; [7]) | Plant response rating (0 = no effect, 100 = complete control), Nightshade (eastern black nightshade; 62 g ai/ha) | Nightshade plant response rating (eastern black nightshade; 500 g ai/ha) | Plant response rating (0 = no effect, 100 = complete control), Cupgrass, Woolly (woolly cupgrass; 62 g ai/ha, preemergence) | Plant response rating, Cupgrass, Woolly (woolly cupgrass; [10]) | Cupgrass, Woolly plant response rating (woolly cupgrass; [11]) | Plant response rating (0 = no effect, 100 = complete control), Crabgrass, Large (large crabgrass; 62 g ai/ha, preemergence) | Plant response rating, Crabgrass, Large (large crabgrass; [10]) | Crabgrass, Large plant response rating (large crabgrass; [11]) | Plant response rating, Rice (rice; [12]) | Plant response rating, Rice (rice; [14]) | other results
1 | CCNC(=O)c1ccc(F)c(NC(=O)C2CC(C(C)(C)C)=NN2CC)c1 (racemic) [Compound 269] | 90 | 100 | 100 | 10 | 40 | 60 | 95 | 100 | 100 | 70 |  |  |  |  |  |  |  |  |  |  | Plant response rating, Nightshade (eastern black nightshade; [2]): 100; Plant response rating, Cupgrass, Woolly (woolly cupgrass; [6]): 85; Plant response rating, Crabgrass, Large (large crabgrass; [6]): 100; Plant response rating, Rice (rice; [8]): 90
2 | CCN1N=C(C(C)(C)C)CC1C(=O)Nc1cc(C(=O)N2CC=CC2)ccc1F (racemic) [Compound 310] | 30 | 35 | 100 | 5 | 10 | 70 | 30 | 70 | 100 | 40 |  |  |  |  |  |  |  |  |  |  | Plant response rating, Nightshade (eastern black nightshade; [2]): 100; Plant response rating, Crabgrass, Large (large crabgrass; [6]): 100; Plant response rating, Rice (rice; [8]): 80
3 | C=CCn1nc(C(C)(C)C)cc1C(=O)Nc1cccc(C(=O)NCC)c1 [Compound 56] |  | 95 |  |  | 0 |  |  | 100 |  |  | 90 | 95 | 0 | 35 | 40 | 95 | 100 | 100 | 40 |  | Plant response rating, Nightshade (eastern black nightshade; [9]): 95; Rice plant response rating (rice; Preemergence, 500 g ai/ha, scale 0 to 100): 70
4 | CCn1nc(C(C)(C)C)cc1C(=O)Nc1cccc(C(=O)NCC(C)C)c1 [Compound 61] |  | 20 |  |  | 0 |  |  | 75 |  |  | 0 | 90 | 0 | 0 | 10 | 50 | 100 | 100 | 0 |  | Plant response rating, Nightshade (eastern black nightshade; [9]): 40
5 | CCn1nc(C(C)(C)C)cc1C(=O)Nc1cccc(C(=O)NCC2CC2)c1 [Compound 62] |  | 90 |  |  | 0 |  |  | 90 |  |  | 80 |  | 0 | 20 |  | 40 | 90 |  | 0 |  | Plant response rating, Nightshade (eastern black nightshade; 31 g ai/ha, scale 0 to 100): 80; Plant response rating, Nightshade (eastern black nightshade; [9]): 95; Plant response rating, Cupgrass, Woolly (woolly cupgrass; [13]): 0; Plant response rating, Crabgrass, Large (large crabgrass; [13]): 5
6 | CCN1CCc2c(NC(=O)c3cc(C(C)(C)C)nn3CC)cccc2C1=O [Compound 63] |  | 90 |  |  | 0 |  |  | 85 |  |  | 70 | 95 | 0 | 0 | 5 | 10 | 90 | 100 | 50 |  | Plant response rating, Nightshade (eastern black nightshade; [9]): 95
7 | CCOC(=O)c1cc(NC(=O)c2cc(C(C)(C)C)nn2CC)ccc1OCC [Compound 95] |  | 95 |  |  | 10 |  |  | 100 |  |  | 95 |  | 5 | 30 |  | 80 | 100 |  | 30 | 50 | Plant response rating, Nightshade (eastern black nightshade; 31 g ai/ha, scale 0 to 100): 90; Plant response rating, Cupgrass, Woolly (woolly cupgrass; [13]): 0; Plant response rating, Crabgrass, Large (large crabgrass; [13]): 10
8 | CCCCOc1cccc(NC(=O)c2cc(C(C)(C)C)nn2CC)c1 [Compound 137] |  | 85 |  |  | 0 |  |  | 70 |  |  | 60 | 90 | 0 | 5 | 40 | 40 | 100 | 100 |  | 10 | 
9 | C#CCNC(=O)c1cccc(NC(=O)c2cc(C(C)(C)C)nn2CC)n1 [Compound 147] |  | 70 |  |  | 10 |  |  | 50 |  |  | 40 | 100 | 0 | 10 | 60 | 0 | 90 | 100 | 0 | 10 | Cupgrass, Woolly plant response rating (woolly cupgrass; [15]): 30; Plant response rating, Cupgrass, Woolly (woolly cupgrass; [16]): 10; Plant response rating, Cupgrass, Woolly (woolly cupgrass; [17]): 0; Plant response rating, Cupgrass, Woolly (woolly cupgrass; [18]): 0; Crabgrass, Large plant response rating (large crabgrass; [15]): 60; Plant response rating, Crabgrass, Large (large crabgrass; [16]): 10; Plant response rating, Crabgrass, Large (large crabgrass; [17]): 0; Plant response rating, Crabgrass, Large (large crabgrass; [18]): 0
10 | CCN(CC)C(=O)c1ccnc(NC(=O)c2cc(C(C)(C)C)nn2CC)c1 [Compound 153] | 90 | 100 |  | 0 | 0 |  | 0 | 0 |  |  |  | 100 |  | 0 | 60 |  | 0 | 80 | 10 | 20 | 
11 | CCN(CC)C(=O)c1cccc(NC(=O)c2sc(C(C)(C)C)nc2C)c1 [Compound 199] | 85 | 95 | 100 | 0 | 0 | 40 | 10 | 90 | 90 | 0 |  | 100 |  |  | 70 |  |  | 95 |  | 20 | 
12 | CCc1nc(C(C)(C)C)sc1C(=O)Nc1cccc(C(=O)N(CC)CC)c1 [Compound 205] | 80 | 100 | 100 | 0 | 10 | 10 | 60 | 80 | 100 | 10 |  | 100 |  |  | 50 |  |  | 100 |  | 70 | 
13 | CCNC(=S)c1cccc(NC(=O)c2nn(C(C)(C)C)nc2C)c1 [Compound 420] | 80 |  |  | 0 |  | 20 | 100 |  | 100 |  |  |  |  |  |  |  |  |  |  |  | Plant response rating (0 = no effect, 100 = complete control), Nightshade (eastern black nightshade; 125 g ai/ha): 90; Plant response rating, Nightshade (eastern black nightshade; [2]): 100; Plant response rating (0 = no effect, 100 = complete control), Cupgrass, Woolly (woolly cupgrass; 125 g ai/ha, preemergence): 10; Plant response rating, Cupgrass, Woolly (woolly cupgrass; [6]): 65; Plant response rating (0 = no effect, 100 = complete control), Crabgrass, Large (large crabgrass; 125 g ai/ha, preemergence): 100; Plant response rating, Crabgrass, Large (large crabgrass; [6]): 100
